# Results as given in ChEMBL document CHEMBL1649515, “Heteroresistance to fluconazole in Cryptococcus neoformans is intrinsic and associated with virulence” (2009).
# Activity calls are given as the source filed them. The calls are words filed in the database; no cut-off is given here.
# Legend:
# Aspergillus fumigatus = assay: Antimicrobial activity against Aspergillus fumigatus at 8 to 32 ug/ml; format: functional, organism-based
# Streptomyces platensis = assay: Antimicrobial activity against Streptomyces platensis at 8 to 32 ug/ml; format: functional
# Cryptococcus neoformans [1] = assay: Antimicrobial activity against Cryptococcus neoformans serotype A; format: functional
# Burkholderia sp. = assay: Antimicrobial activity against Burkholderia sp. at 8 to 32 ug/ml; format: functional
# Cryptococcus neoformans [2] = assay: Antimicrobial activity against Cryptococcus neoformans serotype D; format: functional
structure (smiles),measurement,setting,value
OC(Cn1cncn1)(Cn1cncn1)c1ccc(F)cc1F [FLUCONAZOLE],Activity,Aspergillus fumigatus,inactive
same,Activity,Streptomyces platensis,inactive
same,MIC,Cryptococcus neoformans [1],≥ 64 µg/mL
same,Activity,Burkholderia sp.,inactive
same,MIC,Cryptococcus neoformans [2],≥ 64 µg/mL
